Experimental data published in article PMC3516885 (Chembiochem : a European journal of chemical biology, 2012).
Positions of bridges follow the written chain, without caps; N, C: chain ends. Residues, ends and D or L forms follow the SMILES beside them.

Columns and labels:
[1] = Human serum stability assay; type: in vitro ADME; settings: for peptide remaining after 24 hours in human serum (in words): 0.9 mg/mL, buffered human serum, 37 deg. C; for remaining at 7 h, 0.9 mg/mL: male, human, human type-AB serum diluted 9:1 in phosphate-buffered saline
Grb2-SH2 = Grb2-SH2 (Homo sapiens, UniProt P62993); type: binding; settings: 5 nM pYVNV ligand, 0.91 μM Grb2-SH2
Chain of Grb2-SH2 (P62993 60-152 limits assumed): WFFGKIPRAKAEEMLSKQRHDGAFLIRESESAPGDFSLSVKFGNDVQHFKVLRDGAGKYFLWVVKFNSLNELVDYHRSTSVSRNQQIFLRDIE

| remaining at 7 h, 0.9 mg/mL [1] [%] | inhibition of Grb2-SH2 in the competition assay (in words) (Grb2-SH2) | Structure (SMILES) | peptide remaining after 24 hours in human serum (in words) [1] |
| --- | --- | --- | --- |
| < 30 | – | CSCC[C@@H]1NC(=O)CNC(=O)[C@H](C(C)C)NC(=O)[C@H](CC(N)=O)NC(=O)[C@H](CCC(=O)O)NC(=O)[C@H](Cc2ccc(O)cc2)NC(=O)[C@H](CC(C)C)NC(=O)[C@H](CCC(=O)O)NC(=O)[C@@H](N)CSSC[C@@H](C(N)=O)NC(=O)[C@H](Cc2ccc(O)cc2)NC1=O [G1, reference compound] (H-CELYENVGMYC-NH2; disulfide 1-11; N-terminus and C-terminus assumed) | no detectable amounts of peptide remaining |
| < 30 | little inhibitory activity | CSCC[C@@H]1NC(=O)CNC(=O)[C@H](C(C)C)NC(=O)[C@H](CC(N)=O)NC(=O)[C@@H]2CCCN2C(=O)[C@H](Cc2ccc(O)cc2)NC(=O)[C@H](CC(C)C)NC(=O)[C@H](CCC(=O)O)NC(=O)[C@@H](N)CSSC[C@@H](C(N)=O)NC(=O)[C@H](Cc2ccc(O)cc2)NC1=O [G1-Pro] (H-CELYPNVGMYC-NH2; disulfide 1-11; N-terminus and C-terminus assumed) | no detectable amounts of peptide remaining |
